Assay results: ChEMBL document CHEMBL1138246, “Ester prodrugs of cyclic 1-(S)-[3-hydroxy-2-(phosphonomethoxy)propyl]-5-azacytosine: synthesis and antiviral activity” (J Med Chem, 2007)
≈ marks a conversion by molar mass, not a printed value.

tested on: Vaccinia virus; type: functional, organism-based; conditions: Orthopoxvirus vaccinia, Lederle, HEL

Q: For Nc1ncn(C[C@@H](CO)OCP(=O)(O)O)c(=O)n1, which EC50 is on record?
A: 2.16 µg/mL (≈ 7.71 µM)

Q: Which EC50 does the source give for Nc1ncn(C[C@H]2COP(=O)(O)CO2)c(=O)n1 here?
A: 2.12 µg/mL (≈ 8.09 µM)

Q: Which EC50 does the source give for CCCCCCCCCCCCCCCCOCCOP1(=O)CO[C@@H](Cn2cnc(N)nc2=O)CO1 (some centres not stated) here?
A: 0.037 µg/mL (≈ 0.0697 µM)

Q: How did the EC50 turn out when CCCCCCCCCCCCCCCCCCOP1(=O)CO[C@@H](Cn2cnc(N)nc2=O)CO1 (some centres not stated) was run?
A: 4.45 µg/mL (≈ 8.65 µM)

Q: With CC(C)(C)C(=O)OCOP1(=O)CO[C@@H](Cn2cnc(N)nc2=O)CO1 (some centres not stated) as the molecule, how does the EC50 read?
A: 0.79 µg/mL (≈ 2.1 µM)

Q: Nc1ccn(C[C@@H](CO)OCP(=O)(O)O)c(=O)n1.O.O [CIDOFOVIR] was tested. Which EC50 did it give?
A: 3.09 µg/mL

Q: Which EC50 does the source give for Nc1ccn(C[C@H]2COP(=O)(O)CO2)c(=O)n1 [CYCLIC CIDOFOVIR] here?
A: 2.78 µg/mL (≈ 10.6 µM)
